Structures can show the parent of a compound that is named as a salt. Where two headings read alike, the source gives them in different places.
How the values were obtained:
human CYP2C9 [1] = biological target: T1, human CYP2C9 (Homo sapiens, UniProt P11712); experiment: biochemical; settings: for AC50: CYP2C9 AC50 (half-maximal activity concentration)
human CYP2C19 [2] = biological target: T2, human CYP2C19 (Homo sapiens, UniProt P33261); experiment: biochemical; settings: for AC50: CYP2C19 AC50 (half-maximal activity concentration)
T2 sequence (P33261 whole entry): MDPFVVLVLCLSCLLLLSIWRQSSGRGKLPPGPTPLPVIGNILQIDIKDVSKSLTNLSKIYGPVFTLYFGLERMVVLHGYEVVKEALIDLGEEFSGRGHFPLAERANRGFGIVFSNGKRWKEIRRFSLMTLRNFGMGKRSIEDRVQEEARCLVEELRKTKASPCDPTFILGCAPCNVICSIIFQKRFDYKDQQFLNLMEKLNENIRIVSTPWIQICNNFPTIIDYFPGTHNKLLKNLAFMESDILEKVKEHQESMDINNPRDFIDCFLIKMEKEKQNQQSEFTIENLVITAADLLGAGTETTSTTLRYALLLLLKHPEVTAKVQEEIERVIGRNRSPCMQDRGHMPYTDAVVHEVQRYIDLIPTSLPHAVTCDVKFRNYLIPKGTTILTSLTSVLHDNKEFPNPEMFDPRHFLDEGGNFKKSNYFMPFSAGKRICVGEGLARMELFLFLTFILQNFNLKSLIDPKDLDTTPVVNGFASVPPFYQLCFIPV

CYP3A4 [3] = biological target: T3, CYP3A4 (Homo sapiens, UniProt P08684)
T3 sequence (P08684 whole entry): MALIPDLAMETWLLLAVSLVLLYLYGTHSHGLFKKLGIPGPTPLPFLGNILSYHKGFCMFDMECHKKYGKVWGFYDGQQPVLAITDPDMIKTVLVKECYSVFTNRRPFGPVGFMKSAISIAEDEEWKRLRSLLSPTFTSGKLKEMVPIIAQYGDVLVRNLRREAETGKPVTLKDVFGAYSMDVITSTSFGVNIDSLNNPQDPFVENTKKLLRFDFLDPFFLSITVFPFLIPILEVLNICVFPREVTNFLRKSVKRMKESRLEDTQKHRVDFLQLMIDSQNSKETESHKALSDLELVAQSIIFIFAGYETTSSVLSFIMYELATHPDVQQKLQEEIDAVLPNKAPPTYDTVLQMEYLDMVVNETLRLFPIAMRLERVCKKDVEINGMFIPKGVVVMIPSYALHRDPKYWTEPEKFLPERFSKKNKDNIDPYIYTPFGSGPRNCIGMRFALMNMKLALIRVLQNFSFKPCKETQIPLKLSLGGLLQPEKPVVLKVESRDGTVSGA

human CYP1A2 [4] = biological target: T4, human CYP1A2 (Homo sapiens, UniProt P05177); experiment: biochemical; settings: for AC50: CYP1A2 AC50 (half-maximal activity concentration)
T4 sequence (P05177 1-516): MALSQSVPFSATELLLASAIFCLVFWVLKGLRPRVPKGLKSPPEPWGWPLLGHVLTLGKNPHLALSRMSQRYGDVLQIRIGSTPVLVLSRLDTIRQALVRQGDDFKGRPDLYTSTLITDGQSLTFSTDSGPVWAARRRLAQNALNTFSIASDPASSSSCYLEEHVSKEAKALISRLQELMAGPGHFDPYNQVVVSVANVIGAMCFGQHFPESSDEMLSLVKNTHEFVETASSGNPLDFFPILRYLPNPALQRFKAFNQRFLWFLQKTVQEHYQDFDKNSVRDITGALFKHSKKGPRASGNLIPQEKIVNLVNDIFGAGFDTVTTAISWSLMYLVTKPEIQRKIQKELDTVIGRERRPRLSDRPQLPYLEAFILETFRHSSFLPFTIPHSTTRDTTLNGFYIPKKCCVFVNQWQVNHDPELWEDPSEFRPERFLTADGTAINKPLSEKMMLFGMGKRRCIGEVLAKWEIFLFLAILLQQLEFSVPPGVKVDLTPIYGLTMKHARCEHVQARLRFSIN

CYP3A4 [5] = biological target: T3, CYP3A4; experiment: biochemical; settings: for AC50: CYP3A4 AC50 (half-maximal activity concentration)
human CYP2D6 [6] = biological target: T5, human CYP2D6 (Homo sapiens, UniProt P10635); experiment: biochemical; settings: for AC50: CYP2D6 AC50 (half-maximal activity concentration)
T5 sequence (P10635 whole entry): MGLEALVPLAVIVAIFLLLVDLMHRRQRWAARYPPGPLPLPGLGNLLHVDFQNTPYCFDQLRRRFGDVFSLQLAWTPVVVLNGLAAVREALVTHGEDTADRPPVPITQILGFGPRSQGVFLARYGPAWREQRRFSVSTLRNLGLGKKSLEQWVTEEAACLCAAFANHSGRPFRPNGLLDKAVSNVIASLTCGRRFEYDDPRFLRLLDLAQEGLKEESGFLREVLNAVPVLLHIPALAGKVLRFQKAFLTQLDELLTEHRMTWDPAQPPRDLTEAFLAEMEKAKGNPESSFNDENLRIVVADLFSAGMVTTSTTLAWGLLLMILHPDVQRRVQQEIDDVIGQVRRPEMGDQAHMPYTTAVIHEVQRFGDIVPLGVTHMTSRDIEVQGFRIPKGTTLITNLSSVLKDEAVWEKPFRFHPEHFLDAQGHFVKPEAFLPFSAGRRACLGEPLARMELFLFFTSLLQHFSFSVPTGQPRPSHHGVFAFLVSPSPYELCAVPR

[7] = biological target: Photinus pyralis (firefly) luciferase (Photinus pyralis, UniProt P08659); experiment: biochemical; type: biochemical
Chain of Photinus pyralis (firefly) luciferase (P08659 whole entry): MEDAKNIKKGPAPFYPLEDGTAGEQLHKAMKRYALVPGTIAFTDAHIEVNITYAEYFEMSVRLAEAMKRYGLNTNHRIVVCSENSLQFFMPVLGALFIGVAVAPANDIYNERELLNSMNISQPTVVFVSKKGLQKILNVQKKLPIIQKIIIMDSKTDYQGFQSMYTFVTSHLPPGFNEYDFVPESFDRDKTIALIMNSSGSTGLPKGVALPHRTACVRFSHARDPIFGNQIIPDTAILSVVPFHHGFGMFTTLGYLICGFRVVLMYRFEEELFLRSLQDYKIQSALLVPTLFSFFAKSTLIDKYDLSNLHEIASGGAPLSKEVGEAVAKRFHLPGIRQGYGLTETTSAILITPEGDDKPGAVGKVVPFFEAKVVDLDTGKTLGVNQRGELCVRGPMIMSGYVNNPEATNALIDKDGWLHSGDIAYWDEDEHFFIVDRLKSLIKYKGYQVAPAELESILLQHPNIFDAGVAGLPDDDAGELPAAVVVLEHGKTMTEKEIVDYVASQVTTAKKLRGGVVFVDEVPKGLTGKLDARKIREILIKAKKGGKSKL

human CYP2D6 [8] = biological target: T5, human CYP2D6
human CYP1A2 [9] = biological target: T4, human CYP1A2
human CYP2C9 [10] = biological target: T1, human CYP2C9
human CYP2C19 [11] = biological target: T2, human CYP2C19
[12] = CYP2C19 IC50 (half-maximal inhibitory concentration)
[13] = CYP1A2 IC50 (half-maximal inhibitory concentration)
[14] = CYP2C9 IC50 (half-maximal inhibitory concentration)
[15] = CYP2D6 IC50 (half-maximal inhibitory concentration)
[16] = CYP3A4 IC50 (half-maximal inhibitory concentration)

T1 sequence (P11712 whole entry): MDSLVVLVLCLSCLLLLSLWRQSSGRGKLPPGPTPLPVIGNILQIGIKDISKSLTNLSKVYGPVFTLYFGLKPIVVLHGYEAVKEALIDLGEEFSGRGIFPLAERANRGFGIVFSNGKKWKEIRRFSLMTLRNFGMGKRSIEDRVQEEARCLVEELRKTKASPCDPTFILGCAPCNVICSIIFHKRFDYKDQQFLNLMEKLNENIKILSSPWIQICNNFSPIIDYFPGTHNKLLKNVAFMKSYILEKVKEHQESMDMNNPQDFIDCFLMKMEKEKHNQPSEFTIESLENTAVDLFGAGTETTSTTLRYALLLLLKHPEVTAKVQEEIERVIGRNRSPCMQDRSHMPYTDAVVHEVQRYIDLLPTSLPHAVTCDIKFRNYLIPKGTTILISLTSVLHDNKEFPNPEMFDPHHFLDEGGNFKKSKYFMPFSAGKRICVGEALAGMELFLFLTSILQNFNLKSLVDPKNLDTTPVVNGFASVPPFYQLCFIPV

Compound | AC50 (human CYP2C9 [1]) [µM] | IC50 (human CYP2C19 [2]; [12]) [nM] | CYP3A4 IC50 (half-maximal inhibitory concentration) (CYP3A4 [3]) | IC50 (human CYP1A2 [4]; [13]) [µM] | AC50 (CYP3A4 [5]) [nM] | AC50 (human CYP2D6 [6]) [nM] | Luciferase IC50 (half-maximal inhibitory concentration) [7] | IC50 (human CYP2C9 [1]; [14]) [µM] | IC50 (human CYP2D6 [6]; [15]) [µM] | Luciferase IC50 [7] | IC50 (human CYP2D6 [6]; CYP2D6 IC50) [µM] | further results
CCOP(=O)(OCC)OC(=CCl)c1ccc(Cl)cc1Cl [Chlorfenvinphos] | 31.9 | 830 | 1.18 ± 0.21 (70 ± 1) µM | 6.58 | 1180 | 37000 | Inactive | – | – | – | – | IC50 (human CYP2C9 [1]): 31.9 µM; AC50 (human CYP2C19 [2]): 830 nM; IC50 (human CYP2C19 [2]; IC50 CYP2C19 assay): 770 nM; AC50 (human CYP1A2 [4]): 6.58 µM; IC50 (human CYP2D6 [6]): 37 µM
Cc1ccc2c(c1N)C(=O)c1ccccc1C2=O [1-Amino-2-methylanthraquinone] | 3.36 | 5660 | 0.32 ± 0.14 (91 ± 19) µM | 0.58 | 320 | 5590 | – | 3.36 | 5.59 | – | – | AC50 (human CYP2C19 [2]): 5660 nM; AC50 (human CYP1A2 [4]): 0.58 µM; IC50 [7]: 5.87 µM
CCCCC(CC)CN1C(=O)C2C3C=CC(C3)C2C1=O (stereo not drawn) [MGK-264] | – | – | – | – | – | – | – | – | – | Inactive | – | IC50 (human CYP2C9 [1]): 10.1 µM; IC50 (human CYP2C19 [2]): 4900 nM; CYP2D6 Efficacy (human CYP2D6 [8]; human, 1 h): 31.36 ± 8.74 (-86 ± 27) %; IC50 (human CYP1A2 [4]): 18.6 µM; IC50 (CYP3A4 [5]): 860 nM; IC50 (human CYP2D6 [6]): 31.4 µM
ClC(c1ccccc1)(c1ccccc1)c1ccccc1 [Trityl chloride] | 1.48 | 260 | 6.9 ± 1.18 (56 ± 3) µM | 75.3 | 6900 | – | Inactive | 1.48 | 62.1 | – | – | AC50 (human CYP2C19 [2]): 260 nM; CYP2D6 AC50 (half-maximal activity concentration) (human CYP2D6 [8]): Inconclusive inhibitor; CYP1A2 AC50 (half-maximal activity concentration) (human CYP1A2 [9]): Inconclusive inhibitor
CC(CCc1ccccc1)NCC(O)c1ccc(O)c(C(N)=O)c1 (stereo not drawn) [Labetalol hydrochloride] | – | – | 34.77 ± 1.39 (96 ± 9) µM | – | 34800 | 620 | Inactive | – | 0.62 | – | – | CYP2C9 IC50 (half-maximal inhibitory concentration) (human CYP2C9 [10]): Inactive; CYP1A2 IC50 (half-maximal inhibitory concentration) (human CYP1A2 [9]): Inactive
CN1CCc2cc(Cl)c(O)cc2[C@H]2c3ccccc3CC[C@@H]21 [Ecopipam] | – | – | – | – | 1890 | 10 | – | – | – | Inactive | 0.01 | CYP2C9 IC50 (human CYP2C9 [10]): Inactive; CYP2C19 IC50 (human CYP2C19 [11]): Inactive; CYP1A2 IC50 (human CYP1A2 [9]): Inactive; CYP3A4 IC50 (CYP3A4 [3]): 1.89 ± 0.26 (95 ± 11) µM
O=c1[nH]c2ccccc2n1CCCN1CCN(C(c2ccccc2)c2ccccc2)CC1 [Oxatomide] | 25.3 | – | – | – | 1390 | 620 | – | – | – | Inactive | 0.62 | IC50 (human CYP2C9 [1]; CYP2C9 IC50): 25.3 µM; IC50 (human CYP2C19 [2]; CYP2C19 IC50): 33200 nM; CYP2C19 AC50 (half-maximal activity concentration) (human CYP2C19 [11]): Inconclusive inhibitor; CYP1A2 IC50 (human CYP1A2 [9]): Inactive; CYP3A4 IC50 (CYP3A4 [3]): 1.39 ± 0.16 (164 ± 14) µM
CC1(C)CCC(Cc2ccc(Cl)cc2)C1(O)Cn1cncn1 (stereo not drawn) [Metconazole] | – | 170 | – | – | – | – | Inactive | 0.23 | 41.9 | – | – | CYP2C9 Efficacy (in parenthesis) (human CYP2C9 [10]; human): 0.23 ± 0.11 (-96 ± 19) %; CYP2D6 Efficacy (in parenthesis) (human CYP2D6 [8]; human): 41.91 ± 7.54 (-75 ± 4) %; CYP2C19 Efficacy (in parenthesis) (human CYP2C19 [11]; human): 0.17 ± 0.05 (-148 ± 4) %; CYP3A4 Efficacy (in parenthesis) (CYP3A4 [3]): 0.06 ± 0.04 (-85 ± 6) %; IC50 (CYP3A4 [5]; [16]): 60 nM
c1ccc(CCCc2ccncc2)cc1 [4-(3-Phenylpropyl)pyridine] | – | – | – | – | – | – | – | – | – | – | – | IC50 (human CYP2C9 [1]): 1.86 µM; IC50 (human CYP2C19 [2]): 700 nM; IC50 (human CYP1A2 [4]): 1.14 µM; IC50 (CYP3A4 [5]): 430 nM; IC50 (human CYP2D6 [6]): 3.93 µM; IC50 [7]: 55.3 µM
C#CCOS(=O)OC1CCCCC1Oc1ccc(C(C)(C)C)cc1 (stereo not drawn) [Propargite] | – | 780 | – | 7.75 | – | – | Inactive | 0.49 | 16 | – | – | IC50 (CYP3A4 [5]; [16]): 1870 nM
ClC1=C(Cl)C2(Cl)C3C4C=CC(C4)C3C1(Cl)C2(Cl)Cl (stereo not drawn) [Aldrin] | – | – | – | – | – | – | – | – | – | Inactive | 44.9 | IC50 (human CYP2C9 [1]; CYP2C9 IC50): 33.6 µM; IC50 (human CYP2C19 [2]; CYP2C19 IC50): 27800 nM; IC50 (human CYP1A2 [4]; CYP1A2 IC50): 35.5 µM; IC50 (CYP3A4 [5]; CYP3A4 IC50): 280 nM
CC1(C)C2(Cl)C(Cl)C(Cl)C(Cl)(C(Cl)Cl)C1(Cl)C2Cl (stereo not drawn) [Strobane] | – | – | – | – | – | – | – | – | – | Inactive | 44 | IC50 (human CYP2C9 [1]; CYP2C9 IC50): 9.89 µM; IC50 (human CYP2C19 [2]; CYP2C19 IC50): 1590 nM; IC50 (human CYP1A2 [4]; CYP1A2 IC50): 41.2 µM; IC50 (CYP3A4 [5]; CYP3A4 IC50): 820 nM

Reference: PMC12155096 (International Journal of Molecular Sciences, 2025)
